Data taken from PMC2648976 (Biochemistry, 2008).
Entries after “also recorded” stand apart in the source; their conditions may differ. Where a SMILES comes first, the peptide text is derived from it. The star is where a group is joined. AMC = Cc1cc(=O)oc2cc(N*)ccc12

What was measured:
WNV NS2B-NS3 protease [1] = target: T1, WNV NS2B-NS3 protease (West Nile virus, UniProt Q9Q6P4); experiment: NS2B-NS3pro kinetic assay, cleavage of fluorophore-linked; assay type: biochemical; conditions: for substrate inhibition (reaction mechanism): high substrate concentrations
WNV NS2B-NS3 protease [2] = target: T1, WNV NS2B-NS3 protease; experiment: Inhibition of NS2B-NS3pro by product-analog peptides; assay type: biochemical; conditions: for Kd (substrate) compared with Ki1 (inhibitor) / difference between Kd2 (substrate) and Ki2 (inhibitor): mixed inhibitor-substrate inhibition model
[3] = 200 mM Tris pH 9.0, 20% glycerol

T1 sequence (Q9Q6P4 1428-1467 limits assumed, looked up): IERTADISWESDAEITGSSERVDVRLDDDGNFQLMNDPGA
T1 sequence (Q9Q6P4 1506-1683 limits assumed, looked up): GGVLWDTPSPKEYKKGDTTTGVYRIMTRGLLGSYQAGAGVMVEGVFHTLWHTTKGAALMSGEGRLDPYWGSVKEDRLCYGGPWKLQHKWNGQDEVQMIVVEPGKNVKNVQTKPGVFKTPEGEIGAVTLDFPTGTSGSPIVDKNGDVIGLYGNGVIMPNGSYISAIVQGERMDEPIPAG

CC(=O)N[C@@H](CC(=O)O)C(=O)N[C@@H](Cc1ccccc1)C(=O)N[C@@H](C)C(=O)N[C@@H](CO)C(=O)NCC(=O)N[C@@H](CCCCN)C(=O)N[C@@H](CCCNC(=N)N)C(=O)Nc1ccc2c(C)cc(=O)oc2c1 [Ac-DFASGKR-AMC, Ac-Asp-Phe-Ala-Ser-Gly-Lys-Arg-AMC] (Ac-DFASGKR-{AMC})
substrate inhibition (reaction mechanism) (WNV NS2B-NS3 protease [1]; [3]): substrate inhibition was also observed with the longer substrate (Figure 2b), though it was observed at higher substrate concentrations compared to the tripeptide substrates; also recorded: substrate inhibition model | substrate inhibition (reaction mechanism) (WNV NS2B-NS3 protease [1]; 200 mM Tris pH 9.0, 20% glycerol, listed as Ac-Asp-Phe-Ala-Ser-Gly-Lys-Arg-AMC): demonstrated substrate inhibition

Cc1cc(=O)oc2cc(NC(=O)[C@H](CCCNC(=N)N)NC(=O)[C@H](CCCNC(=N)N)NC(=O)CNC(=O)OC(C)(C)C)ccc12 [Boc-GRR-AMC, Boc-Gly-Arg-Arg-AMC]
NS2B-NS3pro activity against substrate (WNV NS2B-NS3 protease [1]; [3]): clearly active | relative binding (Kd) (WNV NS2B-NS3 protease [1]; Boc-GRR-AMC relative to Ac-DFASGKR-AMC): tighter binding (lower Kd) | relative extent of substrate inhibition (WNV NS2B-NS3 protease [1]; at high substrate concentrations): more pronounced with Boc-GRR-AMC than with Boc-GKR-AMC (data not shown) or Ac-DFASGKR-AMC | substrate inhibition (reaction mechanism) (WNV NS2B-NS3 protease [1]; [3]): initial reaction velocities reached a peak and then decreased with increasing substrate concentration; also recorded: substrate inhibition model | substrate inhibition (reaction mechanism) (WNV NS2B-NS3 protease [1]; 200 mM Tris pH 9.0, 20% glycerol, listed as Boc-Gly-Arg-Arg-AMC): demonstrated substrate inhibition

Ac-DFASGKR
Kd (substrate) compared with Ki1 (inhibitor) (WNV NS2B-NS3 protease [2]): very similar | difference between Kd2 (substrate) and Ki2 (inhibitor) (WNV NS2B-NS3 protease [2]): ~ 2 -fold | mechanism of inhibition (WNV NS2B-NS3 protease [2]; model discrimination analysis with Dynafit): mixed inhibitor-substrate inhibition model; also recorded: mixed non-competitive mechanism (with both competitive and uncompetitive interactions)

CC(=O)NCC(=O)N[C@@H](CCCNC(=N)N)C(=O)N[C@@H](CCCNC(=N)N)C(N)=O [Ac-GRR-NH2]
Kd (substrate) compared with Ki1 (inhibitor) (WNV NS2B-NS3 protease [2]): similar | difference between Kd2 (substrate) and Ki2 (inhibitor) (WNV NS2B-NS3 protease [2]): ~ 2 -fold | Ki3 (interaction with substrate-inhibited enzyme-substrate complex) (WNV NS2B-NS3 protease [2]; model with and without this interaction similar): large Ki3 which did not play a substantial role in the overall inhibition
